US8133901B2, “3-heteroaryl (amino or amido)-1-(biphenyl or phenylthiazolyl) carbonylpiperidine derivatives as orexin receptor inhibitors” (Actelion Pharmaceuticals Ltd., priority 2006, dated 2012)

Key:
human orexin-1 receptor = target: T1, human orexin-1 receptor (Homo sapiens, UniProt O43613); assay: Intracellular calcium measurements (FLIPR), orexin receptor antagonistic activity, OX1; assay type: cell-based; settings: CHO cells expressing the human orexin-1 receptor; 10 nM orexin-A as agonist; fluo-3 calcium signal
T1 construct: expressed in transfected cells; host or cells: CHO cells (G418 selection)
T1 sequence (O43613 1-425): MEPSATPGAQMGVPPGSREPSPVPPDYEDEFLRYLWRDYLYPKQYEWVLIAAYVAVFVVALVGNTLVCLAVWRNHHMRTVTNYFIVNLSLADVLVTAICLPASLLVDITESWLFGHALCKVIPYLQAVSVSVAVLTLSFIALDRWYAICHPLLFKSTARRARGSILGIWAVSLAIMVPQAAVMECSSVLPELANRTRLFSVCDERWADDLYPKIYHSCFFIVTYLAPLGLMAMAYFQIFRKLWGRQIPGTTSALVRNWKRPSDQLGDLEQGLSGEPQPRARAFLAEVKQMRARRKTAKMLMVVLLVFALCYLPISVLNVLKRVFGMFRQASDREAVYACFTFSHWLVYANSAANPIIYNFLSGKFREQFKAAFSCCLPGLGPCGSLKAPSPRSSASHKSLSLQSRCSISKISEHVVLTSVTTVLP
Procedure: (§1) The orexin receptor antagonistic activity of the compounds of formula (I) is determined in accordance with the following experimental method.
(§2) Chinese hamster ovary (CHO) cells expressing the human orexin-1 receptor and the human orexin-2 receptor, respectively, are grown in culture medium (Ham F-12 with L-Glutamine) containing 300 μg/ml G418, 100 U/ml penicillin, 100 μg/ml streptomycin and 10% inactivated fetal calf serum (FCS). The cells are seeded at 80′000 cells/well into 96-well black clear bottom sterile plates (Costar) which have been precoated with 1% gelatine in Hanks' Balanced Salt Solution (HBSS). All reagents are from Gibco BRL. The seeded plates are incubated overnight at 37° C. in 5% CO2.
(§3) Human orexin-A as an agonist is prepared as 1 mM stock solution in methanol:water (1:1), diluted in HBSS containing 0.1% bovine serum albumin (BSA) and 2 mM HEPES for use in the assay at a final concentration of 10 nM.
(§4) Antagonists are prepared as 10 mM stock solution in DMSO, then diluted in 96-well plates, first in DMSO, then in HBSS containing 0.1% bovine serum albumin (BSA) and 2 mM HEPES.
(§5) On the day of the assay, 100 μl of loading medium (HBSS containing 1% FCS, 2 mM HEPES, 5 mM probenecid (Sigma) and 3 μM of the fluorescent calcium indicator fluo-3 AM (1 mM stock solution in DMSO with 10% pluronic acid) (Molecular Probes) is added to each well.
(§6) The 96-well plates are incubated for 60 min at 37° C. in 5% CO2. The loading solution is then aspirated and cells are washed 3 times with 200 μl HBSS containing 2.5 mM probenecid, 0.1% BSA, 2 mM HEPES. 100 μl of that same buffer is left in each well.
(§7) Within the Fluorescent Imaging Plate Reader (FLIPR, Molecular Devices), antagonists are added to the plate in a volume of 50 μl, incubated for 20 min and finally 100 μl of agonist is added. Fluorescence is measured for each well at 1 second intervals, and the height of each fluorescence peak is compared to the height of the fluorescence peak induced by 10 nM orexin-A with buffer in place of antagonist. For each antagonist, IC50 value (the concentration of compound needed to inhibit 50% of the agonistic response) is determined.

human orexin-2 receptor = target: T2, human orexin-2 receptor (Homo sapiens, UniProt O43614); assay: Intracellular calcium measurements (FLIPR), orexin receptor antagonistic activity, OX2; assay type: cell-based; settings: CHO cells expressing the human orexin-2 receptor; 10 nM orexin-A as agonist; fluo-3 calcium signal
T2 construct: expressed in transfected cells; host or cells: CHO cells (G418 selection)
T2 sequence (O43614 1-444): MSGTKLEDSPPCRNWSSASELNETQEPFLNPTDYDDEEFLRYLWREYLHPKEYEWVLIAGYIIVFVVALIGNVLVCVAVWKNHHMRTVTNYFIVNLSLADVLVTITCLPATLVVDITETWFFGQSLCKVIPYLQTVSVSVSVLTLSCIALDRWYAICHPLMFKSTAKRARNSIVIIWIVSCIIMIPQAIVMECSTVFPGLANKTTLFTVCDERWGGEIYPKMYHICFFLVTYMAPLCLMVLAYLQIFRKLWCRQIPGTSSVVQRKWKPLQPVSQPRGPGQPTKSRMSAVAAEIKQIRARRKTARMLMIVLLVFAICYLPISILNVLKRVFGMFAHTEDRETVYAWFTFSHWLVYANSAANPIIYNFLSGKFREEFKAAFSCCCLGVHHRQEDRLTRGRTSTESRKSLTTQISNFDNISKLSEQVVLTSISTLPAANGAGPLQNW
Procedure: as §1, §2, §3, §4, §5, §6, §7

Compound | IC50 (human orexin-1 receptor) [µM] | IC50 (human orexin-2 receptor) [µM]
O=C(c1ccccc1-c1ccccc1)N1CCC[C@@H](Nc2ncc(Br)cn2)C1 [Example 1, (R)-Biphenyl-2-yl-[3-(5-bromo-pyrimidin-2-ylamino)-piperidin-1-yl]-methanone] | 0.294 | 0.392
O=C(c1ccccc1-c1ccccc1F)N1CCC[C@@H](Nc2ncc(Br)cn2)C1 [Example 3, (R)-[3-(5-Bromo-pyrimidin-2-ylamino)-piperidin-1-yl]-(2′-fluoro-biphenyl-2-yl)-methanone] | 0.081 | 0.171
Cc1cccc(-c2sc(C)nc2C(=O)N2CCC[C@@H](NC(=O)c3c(C)nc4sccn34)C2)c1 [Example 7, (R)-6-Methyl-imidazo[2,1-b]thiazole-5-carboxylic acid[1-(2-methyl-5-m-tolyl-thiazole-4-carbonyl)-piperidin-3-yl]-amide] | 0.027 | 0.05
Cc1ccc(-c2sc(C)nc2C(=O)N2CCC[C@@H](NC(=O)c3c(C)nc4sccn34)C2)cc1 [Example 9, (R)-6-Methyl-imidazo[2,1-b]thiazole-5-carboxylic acid[1-(2-methyl-5-p-tolyl-thiazole-4-carbonyl)-piperidin-3-yl]-amide] | 0.101 | 0.165
Cc1nc(C(=O)N2CCC[C@@H](NC(=O)c3c(C)nc4sccn34)C2)c(-c2ccccc2F)s1 [Example 15, (R)-6-Methyl-imidazo[2,1-b]thiazole-5-carboxylic acid{1-[5-(2-fluoro-phenyl)-2-methyl-thiazole-4-carbonyl]-piperidin-3-yl}-amide] | 0.065 | 0.097
